From patent publication US7462613B2, “Pyridazinone derivatives as pharmaceuticals and pharmaceutical compositions containing them” (SANOFI-AVENTIS Deutschland GmbH, priority 2002, dated 2008)

Biological target: CDK2/Cyclin E kinase (Homo sapiens, UniProt P24941)
Assay: CDK2/Cyclin E Flashplate Assay: 96-Well Format
Format: biochemical
Details: streptavidin-coated flashplate; biotinylated-Rb peptide substrate 10 μM; 33P-ATP/ATP 1 μM; CDK2/Cyclin E 20 nM; 30 minutes at 30° C.; 1% DMSO
Description: Functional Measurements for Determination of IC50-Values
CDK2/Cyclin E Flashplate Assay: 96-Well Format
A 96-well streptavidin-coated flashplate was used to assay potency of compounds according formula (I) against CDK2/Cyclin E kinase. To carry out the assay, biotinylated-Rb peptide substrate (Biotin-[…]-OH) was solubilized at 1 mM in kinase buffer (Hepes 50 mM, NaCl 1 mM, MgCl2 5 mM pH 7.5) as a stock solution conserved at −20° C. in aliquots of 110 μl. The day of the experiment, an aliquot of this solution was thawed and diluted to 14.3 μM in kinase buffer, containing 1 mM dithiothreitol (DTT) added in the buffer at the same time.
70 μl of this solution was added in each well of the flashplate in order to achieve a final concentration of 10 μM (100 μl reactionnal volume). Serial dilutions of inhibitors were prepared in DMSO from 10 mM stock solutions in order to achieve 1000 μM, 333.3 μM, 111.1 μM, 37.03 μM, 12.35 μM, 4.11 μM and 1.37 μM and all were rediluted in kinase buffer+DTT in order to achieve 100 μM, 33.3 μM, 11.1 μM, 3.7 μM, 1.24 μM, 0.41 μM and 0.14 μM in DMSO 10% buffer (vol/vol). 10 μl of each, of these solutions (or 10 μl of buffer+DTT for controls) were transferred to the testplate wells in order to achieve 10 μM, 3.33 μM, 1.11 μM, 0.37 μM, 0.12 μM, 0.04. μM and 0.01 μM as final concentrations, 1% DMSO (vol/vol). In each well, 10 μl of a solution of a mix of ^33PyATP/ATP were added in order to achieve 1 μM final concentration and a total of 1 μCi. The kinase reaction was initiated by addition of 10 μl of a solution at 200 nM of CDK2/Cyclin E in kinase buffer+DTT (or buffer+DTT for blanks) in order to achieve 20 nM final concentration. After addition of each reagent, the test-plate was shakened. The plates were incubated 30 minutes at 30° C. with a shaking at 650 rpm. At the end of the incubation, the plates were washed 3 times with 300 μl of PBS (without calcium and magnesium) per well. The incorporation of ^33P to the peptide was measured by scintillation counting.

IC50	SMILES
157 nM	CNc1cc(-c2cc(C(=O)NCc3ccc(Cl)cc3)c(=O)[nH]n2)ccn1 [Example 206, 6-(2-Methylamino-pyridin-4-yl)-3-oxo-2,3-dihydro-pyridazine-4-carboxylicacid 4-chloro-benzylamide]
24 nM	COC(=O)c1ccc(CNC(=O)c2cc(-c3ccncc3)n[nH]c2=O)cc1 [Example 217, 4-{[(3-Oxo-6-pyridin-4-yl-2,3-dihydro-pyridazine-4-carbonyl)-amino]-methyl}-benzoic acid methylester; compound withtrifluoro-acetic acid]
107 nM	CCCCNc1nccc(-c2cc(C(=O)NCCCN3CCN(C)CC3)c(=O)[nH]n2)n1 [Example 218, 6-(2-Butylamino-pyrimidin-4-yl)-3-oxo-2,3-dihydro-pyridazine-4-carboxylic acid [3-(4-methyl-piperazin-1-yl)-propyl]-amide; compoundwith trifluoro-acetic acid]
15 nM	CCCCNc1nccc(-c2cc(C(=O)NCc3cccnc3)c(=O)[nH]n2)n1 [Example 219, 6-(2-Butylamino-pyrimidin-4-yl)-3-oxo-2,3-dihydro-pyridazine-4-carboxylic acid (pyridin-3-ylmethyl)-amide]
12 nM	CCCCNc1nccc(-c2cc(C(=O)NCCCc3cccnc3)c(=O)[nH]n2)n1 [Example 220, 6-(2-Butylamino-pyrimidin-4-yl)-3-oxo-2,3-dihydro-pyridazine-4-carboxylic acid (3-pyridin-3-yl-propyl)-amide]
149 nM	COc1cc(-c2cc(C(=O)NCc3ccc(C(=O)O)cc3)c(=O)[nH]n2)ccc1O [Example 225, 4-({[6-(4-Hydroxy-3-methoxy-phenyl)-3-oxo-2,3-dihydro-pyridazine-4-carbonyl]-amino}-methyl)-benzoic acid]
